Laboratory results as given in PubChem BioAssay AID330 (DTP/NCI, 2004).
Values joined by “and” are separate entries in the source; they are usually repeats but may differ in a detail not shown here. Identical values can stand only once. Toxic doses and inconclusive results are not listed. Rule for the calls: active = survival T/C of 150% or more; inactive = T/C below 125% in these data.

System: P388 leukemia ip, CD2F1 mice, survival T/C
Assay: NCI In Vivo Anticancer Drug Screen. Data for tumor model P388 Leukemia (intraperitoneal) in CD2F1 (CDF1) mice
Conditions: endpoint: median survival time, higher = longer survival
In short: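 Mice carrying the transplanted tumor received test compound or vehicle. Survival was recorded in each group, and the value is the treated-group measurement divided by that of the vehicle-treated control group.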

[1] = dose: 100.0 mg/kg/injection, schedule: Q01DX001 (ip), vehicle: Klucel (hydroxypropylcellulose) (HPC)
[2] = dose: 50.0 mg/kg/injection, schedule: Q01DX009 (ip), vehicle: saline with Tween-80
[3] = dose: 100.0 mg/kg/injection, schedule: Q01DX009 (ip), vehicle: saline with Tween-80
[4] = dose: 200.0 mg/kg/injection, schedule: Q01DX009 (ip), vehicle: saline with Tween-80
[5] = dose: 50.0 mg/kg/injection, schedule: Q01DX005 (ip), vehicle: saline with Tween-80
[6] = dose: 100.0 mg/kg/injection, schedule: Q01DX005 (ip), vehicle: saline with Tween-80
[7] = dose: 200.0 mg/kg/injection, schedule: Q01DX005 (ip), vehicle: saline with Tween-80

Measured: T/C

CC(C)C(=NN/C=N/S(C)(=O)=O)C(C)C
inactive: dose: 25.0 mg/kg/injection, schedule: Q01DX001 (ip), vehicle: Klucel (hydroxypropylcellulose) (HPC) 92 % of control | dose: 50.0 mg/kg/injection, schedule: Q01DX001 (ip), vehicle: Klucel (hydroxypropylcellulose) (HPC) 112 % of control | [1] 97 % of control

Nc1nc2ccccc2n1/N=C/c1ccccc1[N+](=O)[O-]
inactive: [1] 90 % of control | dose: 200.0 mg/kg/injection, schedule: Q01DX001 (ip), vehicle: Klucel (hydroxypropylcellulose) (HPC) 100 % of control | dose: 400.0 mg/kg/injection, schedule: Q01DX001 (ip), vehicle: Klucel (hydroxypropylcellulose) (HPC) 98 % of control

COC(=O)CCC(C)C1CCC2C3=CC(=O)C4CC(OC(C)=O)CCC4(C)C3CC(OC(C)=O)C21C (centres undefined)
inactive: [2] 109 % of control | [3] 94 % of control | [4] 87 % of control

CCC[CH2][Sn]([CH2]CCC)([CH2]CCC)[S]C12CC3CC(CC(C3)C1)C2
inactive: dose: 100.0 mg/kg/injection, schedule: Q04DX003 (ip), vehicle: saline 112 % of control | dose: 200.0 mg/kg/injection, schedule: Q04DX003 (ip), vehicle: saline 102 % of control | dose: 400.0 mg/kg/injection, schedule: Q04DX003 (ip), vehicle: saline 106 % of control

NS(=O)(=O)c1ccc(N=Cc2c3ccccc3nc3cc(Cl)ccc23)cc1
inactive: [5] 91 % of control | [6] 88 % of control | [7] 88 % of control

CCC(C)(C)NCCCCCNc1cc(OC)cc2cccnc12
inactive: dose: 50.0 mg/kg/injection, schedule: Q01DX005 (ip), vehicle: Klucel (hydroxypropylcellulose) (HPC) 94 % of control | [5] 95 % of control | dose: 100.0 mg/kg/injection, schedule: Q01DX005 (ip), vehicle: Klucel (hydroxypropylcellulose) (HPC) 101 % of control | [6] 95 % of control | [7] 91 % of control

CCCCCCCCCCCCCOCC(=O)OC
inactive: [2] 100 % of control | [3] 104 % of control | [4] 105 % of control

O=C(CNC(=O)Nc1cccc([N+](=O)[O-])c1)NNC(=O)Nc1ccc(Cl)c([N+](=O)[O-])c1
inactive: dose: 60.0 mg/kg/injection, schedule: Q01DX005 (ip), vehicle: saline with Tween-80 91 % of control | dose: 120.0 mg/kg/injection, schedule: Q01DX005 (ip), vehicle: saline with Tween-80 91 % of control | dose: 240.0 mg/kg/injection, schedule: Q01DX005 (ip), vehicle: saline with Tween-80 106 % of control

CCCCCC(=O)C(CCCC)(c1nc2n(c1O)C(=N)N=N2)c1nc2n(c1O)C(=N)N=N2 (centres undefined)
inactive: [5] 107 % of control | [6] 93 % of control

CCOc1ccc2nc3cc(N=Nc4cc5ccccc5[nH]4)ccc3c(N)c2c1
inactive: dose: 100.0 mg/kg/injection, schedule: Q01DX001 (ip), vehicle: saline with Tween-80 97 % of control | dose: 200.0 mg/kg/injection, schedule: Q01DX001 (ip), vehicle: saline with Tween-80 94 % of control | dose: 400.0 mg/kg/injection, schedule: Q01DX001 (ip), vehicle: saline with Tween-80 103 % of control

CC(C)=CCN1C(=O)c2ccccc2C1=O
inactive: dose: 25.0 mg/kg/injection, schedule: Q01DX009 (ip), vehicle: saline with Tween-80 109 % of control | [2] 109 % of control | [3] 104 % of control | dose: 100.0 mg/kg/injection, schedule: Q01DX009 (ip), vehicle: saline 94 % of control | dose: 100.0 mg/kg/injection, schedule: Q01DX009 (ip), vehicle: suspension in saline 98 % of control and 91 % of control | dose: 200.0 mg/kg/injection, schedule: Q01DX009 (ip), vehicle: saline 102 % of control | dose: 200.0 mg/kg/injection, schedule: Q01DX009 (ip), vehicle: suspension in saline 100 % of control and 103 % of control | dose: 400.0 mg/kg/injection, schedule: Q01DX009 (ip), vehicle: saline 120 % of control | dose: 400.0 mg/kg/injection, schedule: Q01DX009 (ip), vehicle: suspension in saline 110 % of control and 91 % of control

[NH-]C(CC(N)=O)C(=O)O.[NH-]C(CC(N)=O)C(=O)O.[Pd+2] (centres undefined)
inactive: dose: 6.25 mg/kg/injection, schedule: Q04DX003 (ip), vehicle: saline with Tween-80 92 % of control | dose: 12.5 mg/kg/injection, schedule: Q04DX003 (ip), vehicle: saline with Tween-80 96 % of control | dose: 25.0 mg/kg/injection, schedule: Q04DX003 (ip), vehicle: saline with Tween-80 100 % of control | dose: 50.0 mg/kg/injection, schedule: Q04DX003 (ip), vehicle: saline with Tween-80 98 % of control | dose: 100.0 mg/kg/injection, schedule: Q04DX003 (ip), vehicle: saline with Tween-80 107 % of control | dose: 200.0 mg/kg/injection, schedule: Q04DX003 (ip), vehicle: saline with Tween-80 100 % of control

CC(C)(C)C(=O)/C=C/c1ccc(Cl)c(Cl)c1
inactive: dose: 50.0 mg/kg/injection, schedule: Q01DX009 (ip), vehicle: Klucel (hydroxypropylcellulose) (HPC) 104 % of control | dose: 100.0 mg/kg/injection, schedule: Q01DX009 (ip), vehicle: Klucel (hydroxypropylcellulose) (HPC) 107 % of control | dose: 200.0 mg/kg/injection, schedule: Q01DX009 (ip), vehicle: Klucel (hydroxypropylcellulose) (HPC) 99 % of control
